# According to PMC9025269, “Synthesis and Anti-Hepatitis B Activities of 3′-Fluoro-2′-Substituted Apionucleosides” (Molecules, 2022):
# What was measured:
# Assay type in all cases: biochemical
# human DNA polymerase β = target: T1, human DNA polymerase β (Homo sapiens, UniProt P06746); assay: Human DNA polymerase β DdDp assay
# T1 construct: purchased CHIMERx 1077-1
# Method: (§1) The DNA-dependent DNA polymerization (DdDp) activity of human DNA polymerases α, β, and γ was measured as described previously. Briefly, the assays were run with 5 U/mL recombinant DNA polymerase α (CHIMERx, cat#1075-1), 0.5 U/mL recombinant DNA polymerase β (CHIMERx, cat#1077-1), or 0.1 μg/mL recombinant DNA polymerase γ (Abcam, cat#196066), 62 μg/mL activated calf thymus DNA, 50 mM Tris-HCl (pH 8.0), 60 mM KCl, 5 mM MgCl2, 4 mM dithiothreitol (DTT), 0.1 mg/mL BSA, 2 μM dCTP, 2 μM dATP, 2 μM dGTP, 0.05 μCi/μL ^3H-dTTP (Perkin Elmer) and compounds at various concentrations at 30 °C for 2 h. The 50 μL reactions were processed following the same filter plate method as described above for HIV-1 RT. Acid-precipitated tritiated DNA products retained on the filters were detected by a Trilux MicroBeta scintillation reader (Perkin Elmer). All data were analyzed as described above for HIV-1 RT.
# human DNA polymerase γ = target: T2, human DNA polymerase γ (Homo sapiens, UniProt P54098); assay: Human DNA polymerase γ DdDp assay
# T2 construct: purchased Abcam 196066
# T2 sequence (P54098 1-1239): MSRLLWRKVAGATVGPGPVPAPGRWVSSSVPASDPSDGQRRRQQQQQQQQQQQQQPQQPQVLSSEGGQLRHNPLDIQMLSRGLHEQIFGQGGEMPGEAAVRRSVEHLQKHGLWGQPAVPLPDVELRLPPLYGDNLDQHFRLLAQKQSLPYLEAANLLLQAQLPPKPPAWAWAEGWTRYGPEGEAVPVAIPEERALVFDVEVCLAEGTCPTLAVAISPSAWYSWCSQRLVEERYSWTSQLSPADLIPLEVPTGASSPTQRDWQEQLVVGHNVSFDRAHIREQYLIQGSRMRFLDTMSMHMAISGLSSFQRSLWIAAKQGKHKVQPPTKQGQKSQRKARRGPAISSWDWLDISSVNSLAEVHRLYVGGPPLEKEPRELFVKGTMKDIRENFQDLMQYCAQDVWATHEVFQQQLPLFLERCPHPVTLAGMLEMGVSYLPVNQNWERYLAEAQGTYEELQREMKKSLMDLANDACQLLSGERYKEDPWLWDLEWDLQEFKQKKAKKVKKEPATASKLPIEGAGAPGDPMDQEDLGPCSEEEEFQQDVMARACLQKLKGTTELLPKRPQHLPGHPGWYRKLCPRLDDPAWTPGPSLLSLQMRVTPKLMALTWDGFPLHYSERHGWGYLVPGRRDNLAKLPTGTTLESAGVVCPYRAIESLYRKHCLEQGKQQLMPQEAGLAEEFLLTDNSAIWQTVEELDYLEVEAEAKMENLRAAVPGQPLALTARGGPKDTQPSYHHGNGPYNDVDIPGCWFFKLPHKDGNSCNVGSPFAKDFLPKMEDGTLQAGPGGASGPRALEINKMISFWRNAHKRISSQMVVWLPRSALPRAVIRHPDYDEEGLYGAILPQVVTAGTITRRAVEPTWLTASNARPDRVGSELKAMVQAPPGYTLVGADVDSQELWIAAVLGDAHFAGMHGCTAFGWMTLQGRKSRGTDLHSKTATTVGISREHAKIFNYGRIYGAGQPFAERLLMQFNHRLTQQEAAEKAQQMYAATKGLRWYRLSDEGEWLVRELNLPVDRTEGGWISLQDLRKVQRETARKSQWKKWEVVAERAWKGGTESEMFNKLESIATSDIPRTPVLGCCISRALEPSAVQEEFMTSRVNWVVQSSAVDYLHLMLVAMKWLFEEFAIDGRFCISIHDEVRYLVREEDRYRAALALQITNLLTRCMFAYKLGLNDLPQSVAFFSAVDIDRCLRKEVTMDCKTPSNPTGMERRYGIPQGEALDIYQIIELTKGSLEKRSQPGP
# Method: as §1
# HBV polymerase = target: T3, HBV polymerase (Hepatitis B virus genotype D subtype ayw, UniProt P03156); assay: HBV polymerase RdDp activity assay; conditions: read-out: HBV pol IC50
# T3 construct: Recombinant HBV polymerase (Hepatitis B virus genotype D subtype ayw, full length); made in house; host or cells: Sf9 insect cells (baculovirus)
# Source text: HIV-1 reverse transcriptase (HIV-1 RT) was purchased from Abcam (cat#ab63979). Recombinant HBV polymerase (Hepatitis B virus genotype D subtype ayw, full length) was cloned using the baculovirus system, expressed in sf9 cells, and purified with similar strategy and methods described by Lanford et al.. A DNA primer (5′-[…]-3′) was synthesized by IDTDNA and a 358-nt RNA template was synthesized in-house using Megascript T7 transcription kit (ThermoFisher, cat#AM1334). dNTPs were purchased from Thermo Fisher and ^3H-dTTP from Perkin Elmer. Filter plates were purchased from Millipore (cat#MABN0V050) and microscint-20 was purchased from Perkin Elmer (cat#6013621).
# The RdDp activity of HBV polymerase was measured similarly as described for the HIV-1 RT. To test compound inhibition effect, the reactions were performed at 30 °C for 120 min in a reaction mixture containing reaction buffer (50 mM Tris-Cl, pH 7.5, 100 mM KCl, 12.5 mM MgCl2, 4 mM DTT), 15 µg/mL polymerase, 0.5 µM DNA primer, 0.05 µM RNA template, 10% DMSO, 0.046 µM dATP, 0.057 µM dGTP, 0.017 µM dCTP, 0.32 µM ^3H-dTTP, and compounds at various concentrations.
# All data were analyzed with GraphPad Prism. […]
# T3 sequence (P03156 whole entry): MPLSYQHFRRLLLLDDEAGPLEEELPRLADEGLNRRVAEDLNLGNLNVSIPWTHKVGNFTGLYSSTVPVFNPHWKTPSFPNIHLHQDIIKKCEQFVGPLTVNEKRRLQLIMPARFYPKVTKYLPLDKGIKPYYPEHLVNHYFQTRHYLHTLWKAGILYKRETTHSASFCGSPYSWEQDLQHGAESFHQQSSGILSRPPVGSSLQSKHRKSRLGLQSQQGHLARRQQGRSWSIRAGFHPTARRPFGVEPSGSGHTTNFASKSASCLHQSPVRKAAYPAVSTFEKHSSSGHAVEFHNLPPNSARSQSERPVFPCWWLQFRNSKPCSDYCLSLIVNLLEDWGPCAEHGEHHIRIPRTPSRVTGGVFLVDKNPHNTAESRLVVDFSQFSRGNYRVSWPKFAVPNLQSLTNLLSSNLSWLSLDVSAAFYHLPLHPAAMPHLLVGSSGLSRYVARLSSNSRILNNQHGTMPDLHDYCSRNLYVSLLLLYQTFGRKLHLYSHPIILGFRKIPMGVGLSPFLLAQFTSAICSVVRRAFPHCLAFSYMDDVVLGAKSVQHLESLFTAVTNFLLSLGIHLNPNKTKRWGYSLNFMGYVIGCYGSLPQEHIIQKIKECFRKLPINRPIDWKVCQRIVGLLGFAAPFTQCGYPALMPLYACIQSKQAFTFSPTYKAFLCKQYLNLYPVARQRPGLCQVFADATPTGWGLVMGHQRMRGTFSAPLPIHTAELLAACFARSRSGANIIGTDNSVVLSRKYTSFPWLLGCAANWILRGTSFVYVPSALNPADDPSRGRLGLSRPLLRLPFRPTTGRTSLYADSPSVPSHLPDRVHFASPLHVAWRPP
smiles,measurement,setting,value
"Nc1ncnc2c1ncn2[C@@H]1OC[C@](F)(COP(=O)(O)OP(=O)(O)OP(=O)(O)O)[C@H]1CO [Compound 38, ((3S,4S,5R)-5-(6-Amino-9H-purin-9-yl)-3-fluoro-4-(hydroxymethyl)tetrahydrofuran-3-yl)methyl triphosphate]",IC50,human DNA polymerase β,> 100 µM
same,IC50,human DNA polymerase γ,> 100 µM
same,IC50,HBV polymerase,0.12 µM
